Reference: patent US9388163B2, “Multifunctional radical quenchers for the treatment of mitochondrial dysfunction” (Arizona Board of Regents, a Body Corporate of the State of …, priority 2011, dated 2016)

Columns and labels:
[1] = tested on: bovine heart mitochondrial complex (I, III, IV); assay: NADH oxidase inhibition assay (beef heart submitochondrial particles); format: biochemical
Protocol: X. NADH Oxidase Inhibition Assay
Beef heart mitochondria were obtained by a large-scale procedure. Inverted submitochondrial particles (SMP) were prepared by the method of Matsuno-Yagi and Hatefi (J. Biol. Chem. 260 (1985), p. 14424), and stored in a buffer containing 0.25 M sucrose and 10 mM Tris-HCl (pH 7.4) at −80° C. Inhibitory effects of compounds on bovine heart mitochondrial complex (I, III, IV) were evaluated. Maximal dimethyl sulfoxide concentration never exceeded 2% and had no influence on the control enzymatic activity. Beef heart SMP were diluted to 0.5 mg/mL. The enzymatic activities were assayed at 30° C. and monitored spectrophotometrically with a Beckman Coulter DU-530 (340 nm, ε=6.22 mM^−1 cm^−1). NADH oxidase activity was determined in a reaction medium (2.5 mL) containing 50 mM Hepes, pH 7.5, containing 5 mM MgCl2. The final mitochondrial protein concentration was 30 μg/mL. After the pre-equilibration of SMP with inhibitor for 5 min, the initial rates were calculated from the linear portion of the traces.

[2] = tested on: CEM leukemia cells; assay: Suppression of ROS production (DCFH-DA, flow cytometry) in DEM-treated cells; format: cell-based; conditions: CEM cells treated with DEM, untreated control 100, treated control 0
Protocol: (§1) Leukemic CEM cells (ATCC®, catalogue number CRL-2264) were cultured in RPMI (GIBCO, Grand island, NY, USA) with 10% FBS (Fisher Scientific, TX, USA), 2 mM glutamine (HyClone, South Logan, Utah, USA) and 1% penicillin-streptomycin mix antibiotics (Cellgro, Manassas, Va., USA) supplements. Cells were maintained in the log phase at a concentration of between 1×10^5 and 1×10^6 cells/mL.
Cellular ROS production can be monitored using 2′,7′-dichlorodihydrofluorescein diacetate (DCFH-DA) (LeBel et al. (1992) Chem. Res. Toxicol. 5, 227-231) (Molecular Probes, Eugene, Oreg., USA), a membrane permeable and oxidant-sensitive fluorescent dye. DCFH-DA is a non-fluorescent derivative of fluorescein that emits fluorescence after being oxidized by hydrogen peroxide and other ROS. The emitted fluorescence is directly proportional to the concentration of hydrogen peroxide. DCFH-DA is nonionic and nonpolar and is easily taken up by cells. Once inside the cell, DCFH-DA is hydrolyzed by cellular esterases to non-fluorescent DCFH which traps the dye in the cell. In the presence of ROS including hydrogen peroxide, DCFH is oxidized to the highly fluorescent compound dichlorofluorescein (DCF). The intracellular DCF fluorescence is used as an index of cellular ROS production.
Cellular oxidative stress was induced by pharmacological depletion of glutathione (GSH) using the chemical diethylmaleate (DEM). […] The compounds tested were prepared by first making stock solutions (1 mM) in dimethylsulfoxide (DMSO). Cells were treated with 5 mM DEM for 30 minutes and collected by centrifugation at 300×g for 3 min and then washed twice with Phosphate Buffer Saline (PBS) (Invitrogen, N.Y., USA). Cells were re-suspended in PBS buffer+10 mM glucose and incubated at 37° C. in the dark for 20 min with 10 μM DCFH-DA. Cells were collected by centrifugation at 300×g for 3 min and then washed twice with PBS buffer. The samples were analyzed immediately by flow cytometry (Becton-Dickinson FACS Caliber), (Cell Quest software, BD Biosciences) using 488 nm excitation laser and FL1-H channel 538 nm emission filter. In each analysis, 10,000 events were recorded after cell debris were electronically gated out. Results obtained were verified by running duplicates and repeating experiments N=3 independent experiments. Authentic hydrogen peroxide was used as a positive control.

[3] = tested on: FRDA cell line; assay: Trypan blue exclusion cell viability assay, DEM-stressed cells; format: cell-based; conditions: FRDA cells stressed with DEM
Protocol: as §1, with “Friedreich's Ataxia lymphocytes and control” for “Leukemic CEM”, “(Coriell,” for “(ATCC®,”, “[…], respectively)” for “CRL-2264)”, “15%” for “10%”
V. Trypan Blue Cell Viability Assay
Cell viability determined by trypan blue exclusion assay: This technique was used to assess the cytoprotective effects of the invention compounds in cultured cells pharmacologically treated to induce cell death by GSH depletion. DEM was used to deplete cellular GSH and induce oxidative stress. The viability of DEM-treated cells was determined by their ability to exclude the dye trypan blue. Viable cells exclude trypan blue; whereas, non-viable cells take up the dye and stain blue. Briefly, cells were seeded at a density of 1×10^6 cells/mL and treated with different concentrations of the invention compounds. Cells were incubated at 37° C. in a humidified atmosphere of 5% CO2 in air for three hours with 5 mM DEM. Cell viability was determined by staining cells with 0.4% trypan blue using a hemocytometer. At least 500 cells were counted for each experimental group. At the time of assay, >95% of DEM-treated cells were trypan blue positive; whereas, in non-DEM treated control cell cultures >95% cells were viable. Cell viability was expressed as the percentage of control. Data are expressed as means±S.E.M (n=3).

[4] = tested on: leukemia CEM lymphocytes; assay: Suppression of lipid peroxidation (C11-BODIPY 581/591, FACS) in DEM-treated cells; format: cell-based; conditions: CEM cells treated with DEM, untreated control 100, treated control 0
Protocol: as §1
Measurement of C11-BODIPY^581/591 Oxidation in Cell Culture
Lipid peroxidation in cells was detected by utilizing the oxidant-sensitive lipophilic probe C11 BODIPY^581/591. […] Cells were treated with 500 nM C11 BODIPY^581/591 in phenol red-free RPMI-1640 media and incubated at 37° C. in the dark for 30 minutes. The cells were washed twice with phosphate buffered saline and oxidative stress was induced with 5 mM DEM in phenol red-free RPMI-1640 media for 90 minutes. Treated cells were collected by centrifugation at 300×g for 3 minutes and then washed twice with phosphate buffered saline. Cells were re-suspended in 250 μL of phosphate buffered saline and were analyzed by FACS (FACS Calibur flow cytometer, Becton Dickinson) to monitor the change in intensity of the C11 BODIPY^581/591 green (oxidized) fluorescence signal.

CCCCCCCc1c(C)n(O)c(C)c(N)c1=O [CPD-3, 3-amino-5-heptyl-1-hydroxy-2,6-dimethylpyridin-4(1H)-one]
NADH oxidase (complex I, III, IV) activity (%) ([1]; 5 μM compound): 76.7 ± 6.9% | NADH oxidase (complex I, III, IV) activity (%) ([1]; 10 μM compound): 70.4 ± 5.5% | NADH oxidase (complex I, III, IV) activity (%) ([1]; l μM compound): 92.9 ± 10.9% | % of scavenging activity (ROS) ([2]; 0.25 μM): 4.6 ± 5.4% | % of scavenging activity (ROS) ([2]; 2.5 μM): 42.2 ± 2.9% | % of scavenging activity (ROS) ([2]; 10 μM): 67.0 ± 5.9% | viability at 0.1 µM [3]: 19 ± 6% | viability at 0.5 µM [3]: 19 ± 3% | viability at 2.5 µM [3]: 25 ± 5% | Scavenging activity (%) (lipid peroxidation) ([4]; 1 μM): 14 ± 4.1% | Scavenging activity (%) (lipid peroxidation) ([4]; 2.5 μM): 20 ± 5.4% | Scavenging activity (%) (lipid peroxidation) ([4]; 5 μM): 9.6 ± 2.8%

CCCCCCCc1c(C)n(O)c(C)c(OC)c1=O [CPD-5, 3-heptyl-1-hydroxy-5-methoxy-2,6-dimethylpyridin-4(1H)-one]
NADH oxidase (complex I, III, IV) activity (%) ([1]; 5 μM compound): 44.5 ± 3.6% | NADH oxidase (complex I, III, IV) activity (%) ([1]; 10 μM compound): 33.5 ± 2.2% | NADH oxidase (complex I, III, IV) activity (%) ([1]; l μM compound): 74.5 ± 6.9% | % of scavenging activity (ROS) ([2]; 0.25 μM): 21.0 ± 5.5% | % of scavenging activity (ROS) ([2]; 2.5 μM): 26.4 ± 4.4% | % of scavenging activity (ROS) ([2]; 10 μM): 0 ± 10% | viability at 0.1 µM [3]: 12 ± 6% | viability at 0.5 µM [3]: 17 ± 7% | viability at 2.5 µM [3]: 14 ± 3% | Scavenging activity (%) (lipid peroxidation) ([4]; 1 μM): 11 ± 1.8% | Scavenging activity (%) (lipid peroxidation) ([4]; 2.5 μM): 16 ± 1.8% | Scavenging activity (%) (lipid peroxidation) ([4]; 5 μM): 2.2 ± 2.3%

C=Cc1c(C)n(O)c(C)c(CCCCCCC)c1=O [CPD-1, 3-heptyl-1-hydroxy-2,6-dimethyl-5-vinylpyridin-4(1H)-one]
NADH oxidase (complex I, III, IV) activity (%) ([1]; 5 μM compound): 20.7 ± 2.2% | NADH oxidase (complex I, III, IV) activity (%) ([1]; 10 μM compound): 13.2 ± 1^ % | NADH oxidase (complex I, III, IV) activity (%) ([1]; l μM compound): 29.7 ± 3.8% | % of scavenging activity (ROS) ([2]; 0.25 μM): 23.4 ± 1.6% | % of scavenging activity (ROS) ([2]; 2.5 μM): 22.2 ± 3.5% | % of scavenging activity (ROS) ([2]; 10 μM): 20.0 ± 4.4% | viability at 0.1 µM [3]: 25 ± 6% | viability at 0.5 µM [3]: 42 ± 3% | viability at 2.5 µM [3]: 30 ± 6% | Scavenging activity (%) (lipid peroxidation) ([4]; 1 μM): 0% | Scavenging activity (%) (lipid peroxidation) ([4]; 2.5 μM): 0% | Scavenging activity (%) (lipid peroxidation) ([4]; 5 μM): 0%

CCCCCCCc1c(C)n(O)c(C)c(Br)c1=O [CPD-9, 3-bromo-5-heptyl-1-hydroxy-2,6-dimethylpyridin-4(1H)-one]
viability at 0.1 µM [3]: 31 ± 12% | viability at 0.5 µM [3]: 28 ± 7% | viability at 2.5 µM [3]: 32 ± 5% | Scavenging activity (%) (lipid peroxidation) ([4]; 1 μM): 0% | Scavenging activity (%) (lipid peroxidation) ([4]; 5 μM): 0%

C=Cc1c(C)n(O)c(C)c(CCCCCCCCCCCCCCCC)c1=O [CPD-2, 3-hexadecyl-1-hydroxy-2,6-dimethyl-5-vinylpyridin-4(1H)-one]
NADH oxidase (complex I, III, IV) activity (%) ([1]; 5 μM compound): 12 ± 0.8% | NADH oxidase (complex I, III, IV) activity (%) ([1]; 10 μM compound): 11.9 ± 1.6% | NADH oxidase (complex I, III, IV) activity (%) ([1]; l μM compound): 20.1 ± 1.4% | % of scavenging activity (ROS) ([2]; 0.25 μM): 31.1 ± 1.3% | % of scavenging activity (ROS) ([2]; 2.5 μM): 25.3 ± 5.2% | % of scavenging activity (ROS) ([2]; 10 μM): 35.2 ± 3.9% | viability at 0.1 µM [3]: 10 ± 3% | viability at 0.5 µM [3]: 14 ± 5% | viability at 2.5 µM [3]: 15 ± 4% | Scavenging activity (%) (lipid peroxidation) ([4]; 1 μM): 7 ± 2.8% | Scavenging activity (%) (lipid peroxidation) ([4]; 2.5 μM): 13 ± 4.2% | Scavenging activity (%) (lipid peroxidation) ([4]; 5 μM): 0%

CCCCCCCCCCc1c(C)n(O)c(C)c(Cl)c1=O [CPD-13, 3-chloro-5-decyl-1-hydroxy-2,6-dimethylpyridin-4(1H)-one]
viability at 0.1 µM [3]: 17 ± 3% | viability at 0.5 µM [3]: 14 ± 2% | viability at 2.5 µM [3]: 19 ± 5% | Scavenging activity (%) (lipid peroxidation) ([4]; 1 μM): 0% | Scavenging activity (%) (lipid peroxidation) ([4]; 5 μM): 0%

CCCCCCCc1c(C)n(O)c(C)cc1=O [CPD-6, 3-heptyl-1-hydroxy-2,6-dimethylpyridin-4(1H)-one]
viability at 0.1 µM [3]: 27 ± 7% | viability at 0.5 µM [3]: 30 ± 13% | viability at 2.5 µM [3]: 24 ± 6% | Scavenging activity (%) (lipid peroxidation) ([4]; 1 μM): 0% | Scavenging activity (%) (lipid peroxidation) ([4]; 5 μM): 0%

CCCCCCCCCCCCCCCCc1c(C)n(O)c(C)cc1=O [CPD-8, 3-hexadecyl-1-hydroxy-2,6-dimethylpyridin-4(1H)-one]
viability at 0.1 µM [3]: 19 ± 6% | viability at 0.5 µM [3]: 15 ± 5% | viability at 2.5 µM [3]: 18 ± 2% | Scavenging activity (%) (lipid peroxidation) ([4]; 1 μM): 10 ± 4.3% | Scavenging activity (%) (lipid peroxidation) ([4]; 5 μM): 20 ± 3.4%

CCCCCCCc1c(C)n(O)c(C)c(Cl)c1=O [CPD-12, 3-chloro-5-heptyl-1-hydroxy-2,6-dimethylpyridin-4(1H)-one]
viability at 0.1 µM [3]: 15 ± 6% | viability at 0.5 µM [3]: 29 ± 3% | viability at 2.5 µM [3]: 39 ± 3% | Scavenging activity (%) (lipid peroxidation) ([4]; 1 μM): 0% | Scavenging activity (%) (lipid peroxidation) ([4]; 5 μM): 0%

CCCCCCCCCCc1c(C)n(O)c(C)c(Br)c1=O [CPD-10, 3-bromo-5-decyl-1-hydroxy-2,6-dimethylpyridin-4(1H)-one]
viability at 0.1 µM [3]: 19 ± 6% | viability at 0.5 µM [3]: 20 ± 13% | viability at 2.5 µM [3]: 32 ± 8% | Scavenging activity (%) (lipid peroxidation) ([4]; 1 μM): 0% | Scavenging activity (%) (lipid peroxidation) ([4]; 5 μM): 0%

CCCCCCCCCCc1c(C)n(O)c(C)cc1=O [CPD-7, 3-decyl-1-hydroxy-2,6-dimethylpyridin-4(1H)-one]
viability at 0.1 µM [3]: 36 ± 6% | viability at 0.5 µM [3]: 14 ± 5% | viability at 2.5 µM [3]: 20 ± 3% | Scavenging activity (%) (lipid peroxidation) ([4]; 1 μM): 0% | Scavenging activity (%) (lipid peroxidation) ([4]; 5 μM): 0%

CCCCCCCCCCCCCCCCc1c(C)n(O)c(C)c(Br)c1=O [CPD-11, 3-bromo-5-hexadecyl-1-hydroxy-2,6-dimethylpyridin-4(1H)-one]
viability at 0.1 µM [3]: 12 ± 5% | viability at 0.5 µM [3]: 6 ± 3% | viability at 2.5 µM [3]: 8 ± 3% | Scavenging activity (%) (lipid peroxidation) ([4]; 1 μM): 7 ± 2.3% | Scavenging activity (%) (lipid peroxidation) ([4]; 5 μM): 15 ± 3.3%
